Source: PMC6422423, “Constitutively active BRS3 is a genuinely orphan GPCR in placental mammals” (PLoS Biology, 2019)

Columns and labels:
[1] = molecular target: placental mammalian BRS3 (hBRS3, mBRS3, and aBRS3); assay: Radioligand binding, placental mammals pooled; parameters: species or system human, mouse, aardvark; settings: for Ki: BRS3s in placental mammals; for Direct binding (in words): hBRS3, mBRS3, aBRS3, transfected HEK293 cells
Method: (§1) HEK293 cells were seeded in a 10-cm tissue culture dish at a density of 10^6 cells per dish and grown overnight at 37°C in growth medium. The following morning, 5 μg of different species’ BRS3 plasmids were transfected. After 6 h, the medium was replaced with growth medium. Cells were maintained at 37°C in a 5% CO2 atmosphere and used 48 h later for binding assays. The positive control group included transfected GRPR and NMBR; the test group consisted of transfected BRS3 from different species. Then, [^125I]-Tyr^42-GRP and [^125I]-Tyr-NMB were used as the ligands to assess affinity to the various receptors. […] The cell concentration was adjusted to between 0.05 and 4 × 10^6 cells/ml for each receptor such that less than 20% of the total added radioactive ligand was bound during the incubation, and the results were compared to cells transfected with GRPR or NMBR adjusted in concentration to bind a similar amount of ligand. After the incubation, 100 μl aliquots were added to 1.5-ml microfuge tubes, which contained 100 μl of binding buffer to determine the total radioactivity. The bound tracer was separated from unbound tracer by pelleting the cells through the binding buffer by centrifugation at 10,000g in a Microfuge E (Beckman) for 3 min. The supernatant was aspirated, and the pelleted cells were rinsed twice with a washing buffer that contained 1% (w/v) BSA in PBS. The amount of radioactivity bound to the cells was measured in a Cobra II Gamma counter (Packard Instruments). Binding was expressed as the percentage of total radioactivity that was associated with the cell pellet. All binding values represented saturable binding; nonsaturable binding was <15% of the total binding in all experiments. Each point was measured in duplicate, and each experiment was replicated at least four times. […] All the experiment data were calculated using 1 pM ligand-treated as 100% control.

turtle BRS3 (tBRS3) [2] = assay: Radioligand binding (competition); parameters: species or system Chrysemys picta; settings: transfected HEK293 cells, 1 h 21°C, pH 7.4, mean ± SE, at least three experiments
Method: as §1

[3] = system: BRS3 receptors in nonplacental vertebrates; assay: Intracellular calcium assay, nonplacental pooled; assay type: cell-based, koala, platypus, chicken, turtle, frog, and spotted gar; settings: 10 nM peptide, HEK293
Method: (§2) Intracellular calcium was measured using the non-wash calcium assay Fluo8 kit (ab112129, Abcam) according to the manufacturer’s instructions. Briefly, HEK293 cells were seeded in 24-well plates and were transfected with GRPR, NMBR, BRS3, or the empty vector plasmid pcDNA3.1-V5-His (300 ng) and incubated overnight at 37°C with 5% CO2. The next day, the cells were replated into a 96-well assay plate (black plate and clear bottom). After 12 h, growth media were aspirated, and calcium dye was added. […] The basal fluorescence intensity was recorded 15 times at 1 Hz for […]. The results were normalized to the average basal fluorescence intensity in ratio, and the peak response was used for the result calculation. Calcium fold was calculated using no stimulation data as standard value.

GRPR [4] = molecular target: T1, GRPR (Homo sapiens, UniProt P30550); assay: Intracellular calcium assay; assay type: cell-based; settings: 10 nM peptide, HEK293, Fluo8, GRPR
T1 construct: HA; expressed in transfected cells; host or cells: HEK293
T1 sequence (P30550 whole entry, species assumed): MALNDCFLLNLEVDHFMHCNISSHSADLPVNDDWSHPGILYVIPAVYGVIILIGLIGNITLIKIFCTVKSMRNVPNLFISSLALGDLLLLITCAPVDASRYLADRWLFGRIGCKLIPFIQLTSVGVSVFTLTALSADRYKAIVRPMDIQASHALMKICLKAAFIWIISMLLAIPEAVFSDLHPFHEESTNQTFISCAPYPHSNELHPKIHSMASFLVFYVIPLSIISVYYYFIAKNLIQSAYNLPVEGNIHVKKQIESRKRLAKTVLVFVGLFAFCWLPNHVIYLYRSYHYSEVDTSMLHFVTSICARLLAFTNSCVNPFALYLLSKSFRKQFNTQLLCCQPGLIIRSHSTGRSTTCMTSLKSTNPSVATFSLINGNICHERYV
Method: as §2

chicken BRS3 (cBRS3) [5] = assay: Radioligand binding (competition); parameters: species or system Gallus gallus; settings: transfected HEK293 cells, 1 h 21°C, pH 7.4, mean ± SE, at least three experiments
Method: as §1, with “species.” for “species. Then, [^125I]-Tyr^42-GRP and [^125I]-Tyr-NMB were used as the ligands to assess affinity to the various receptors.”, “All binding values represented saturable binding; nonsaturable binding was <15% of the total binding in all experiments.” left out

turtle BRS3 (tBRS3) [6] = assay: Intracellular calcium assay (WT and mutants); assay type: cell-based, Chrysemys picta; settings: 10 nM peptide; for Calcium fold: HEK293, Fluo8, tBRS3; for Intracellular Ca2+, mutants vs wild type (in words): tBRS3 Q127R, P205S, and R294H, each
Method: as §2

[7] = system: BRS3 receptors in nonplacental vertebrates; assay: ERK1/2 phosphorylation, nonplacental pooled; assay type: cell-based, koala, platypus, chicken, turtle, frog, and spotted gar; settings: 1,000 nM peptide, 0/2/5 min, HEK293
Method: (§3) For ERK1/2 phosphorylation, HEK293 cells were seeded in 24-well plates and transfected with GRPR, NMBR, BRS3, mutants of different species’ BRS3, or an empty vector plasmid, pcDNA3.1-V5-His plasmid (300 ng). […] Each sample with an equal amount of protein was mixed with 6×SDS sample buffer, boiled for 5 min, and separated on 10% SDS-polyacrylamide gel electrophoresis (PAGE) before transferring the proteins onto a PVDF membrane. The membranes were then blocked at room temperature for 1 h with 5% milk powder in Tris-buffered saline-Tween (TBST), followed by subsequent incubation at 4°C overnight in TBST containing the different primary antibodies (1:1,000 dilution). After washing three times (10 min each time) with TBST, the membranes were incubated for 1 h in TBST containing the secondary antibodies (1:2,000 dilution), followed by washing three times (10 min each time) with TBST, prior to detection by chemiluminescence.

chicken BRS3 (cBRS3) [8] = assay: ERK1/2 phosphorylation (WT and mutants); assay type: cell-based, Gallus gallus; settings: cBRS3 P205S; exception to the significant effects
Method: as §3

GRPR [9] = molecular target: T1, GRPR; assay: Radioligand binding (competition); settings: [125I]-Tyr42-GRP
Method: HEK293 cells were seeded in a 10-cm tissue culture dish at a density of 10^6 cells per dish and grown overnight at 37°C in growth medium. The following morning, 5 μg of different species’ BRS3 plasmids were transfected. After 6 h, the medium was replaced with growth medium. Cells were maintained at 37°C in a 5% CO2 atmosphere and used 48 h later for binding assays. The positive control group included transfected GRPR and NMBR; the test group consisted of transfected BRS3 from different species. Then, [^125I]-Tyr^42-GRP and [^125I]-Tyr-NMB were used as the ligands to assess affinity to the various receptors. […] After the incubation, 100 μl aliquots were added to 1.5-ml microfuge tubes, which contained 100 μl of binding buffer to determine the total radioactivity. […] The amount of radioactivity bound to the cells was measured in a Cobra II Gamma counter (Packard Instruments). Binding was expressed as the percentage of total radioactivity that was associated with the cell pellet. […] Each point was measured in duplicate, and each experiment was replicated at least four times. […] All the experiment data were calculated using 1 pM ligand-treated as 100% control.

Substance | Ki [1] | Direct binding (in words) [1] | IC50 (turtle BRS3 (tBRS3) [2]; 50 pM [125I]-Tyr42-GRP) | IC50 (turtle BRS3 (tBRS3) [2]; 50 pM [125I]-Tyr-NMB) | Intracellular Ca2+ (in words) [3] | Calcium fold (GRPR [4]; replicate 1) | Calcium fold (GRPR [4]; replicate 2) | Calcium fold (GRPR [4]; replicate 3) | IC50 (chicken BRS3 (cBRS3) [5]; 50 pM [125I]-Tyr42-GRP) | IC50 (chicken BRS3 (cBRS3) [5]; 50 pM [125I]-Tyr-NMB) | Calcium fold (turtle BRS3 (tBRS3) [6]; replicate 1) | Calcium fold (turtle BRS3 (tBRS3) [6]; replicate 2) | Calcium fold (turtle BRS3 (tBRS3) [6]; replicate 3) | Intracellular Ca2+, mutants vs wild type (in words) (turtle BRS3 (tBRS3) [6]) | ERK phosphorylation (in words) [7] | ERK phosphorylation, mutant (in words) (chicken BRS3 (cBRS3) [8]) | Inhibition of GRPR–GRP binding (in words) (GRPR [9])
GSHWAVGHLM-NH2 [GRP, gastrin-releasing peptide] | > 1000 nM | no binding was detected | 0.14 nM | 0.28 nM | remarkable increase of Ca^2+ ions in cells | 5.512 fold | 5.7711 fold | 5.9191 fold | 0.15 nM | 0.18 nM | 5.1678 fold | 5.2199 fold | 5.5876 fold | remarkable decrease of cellular Ca^2+ ions | increase in the levels of phosphorylated ERK | – | –
neuromedin B [NMB] | > 1000 nM | no binding | 1.14 nM | 2.82 nM | remarkable increase of Ca^2+ ions in cells | – | – | – | 1.35 nM | 2.26 nM | – | – | – | remarkable decrease of cellular Ca^2+ ions | increase in the levels of phosphorylated ERK | excepting P205S of cBRS3 for ERK phosphorylation activated by NMB | very low affinity
